Where two headings read alike, the source gives them in different places.
Target: T1, CN1 enzyme (Homo sapiens, UniProt Q96KN2)
T1 construct: Fasted venous heparin plasma was collected from 6 subjects (5 males and 1 female) with a wide range in CN1 enzyme activity; from tissue; host or cells: human venous heparin plasma from 6 volunteers
T1 sequence (Q96KN2 26-507): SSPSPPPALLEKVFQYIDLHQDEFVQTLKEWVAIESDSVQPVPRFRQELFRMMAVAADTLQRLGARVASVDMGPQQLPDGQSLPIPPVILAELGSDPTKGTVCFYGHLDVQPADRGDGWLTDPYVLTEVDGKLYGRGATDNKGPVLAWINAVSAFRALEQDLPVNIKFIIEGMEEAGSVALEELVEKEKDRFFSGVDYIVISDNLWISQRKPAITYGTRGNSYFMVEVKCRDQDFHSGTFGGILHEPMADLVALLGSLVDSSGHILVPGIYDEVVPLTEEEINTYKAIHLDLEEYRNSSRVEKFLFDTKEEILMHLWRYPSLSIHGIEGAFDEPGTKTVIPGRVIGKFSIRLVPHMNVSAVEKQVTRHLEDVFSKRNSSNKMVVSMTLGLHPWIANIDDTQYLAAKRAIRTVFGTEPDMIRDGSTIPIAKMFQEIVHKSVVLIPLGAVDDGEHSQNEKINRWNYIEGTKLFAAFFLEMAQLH
Test: In vitro degradation of carnosine, anserine and balenine added to human heparin plasma
Assay type: in vitro ADME
Settings: for half-life at 20 µM: human, heparin plasma
Description: Fasted venous heparin plasma was collected from 6 subjects (5 males and 1 female) with a wide range in CN1 enzyme activity (0.32–2.92 µmol/mL/h with a mean value of 1.62 µmol/mL/h). Subjects were asked to refrain from alcohol, meat and fish the day before the sampling. […] On different time points (Table 1), plasma was deproteinized with 1:11 sulfosalicylic acid (SSA, 35% solution) to inhibit further hydrolysis. Samples were centrifuged for 5 min at 16,000 g and supernatant was stored at − 20 °C until further UHPLC-MS/MS analysis.
Extraction of plasma and urine for UHPLC-MS/MS analysis went as follows: 150 µL of deproteinized plasma/urine (not deproteinized) was added to 215 µL of acetonitrile containing 1% formic acid, 10 µL of internal standard (IS) (carnosine-D4) and 25 µL ultrapure water or standard (calibration curve and quality control samples (QC)). Then samples were vortexed and centrifuged (15 min, 4 °C, 15,000 g). Supernatant was used for further analyses.
In the in vitro study, supernatant was diluted 40 times before injection. In the PK study, plasma samples from the 10 mg/kg condition and baseline urine samples were diluted 100 times. All other urine samples were diluted 1000 times. Dilutions were conducted with acetonitrile containing 1% formic acid.
Analyses were performed on a UHPLC-MS/MS platform consisting of an Acquity H-Class Quaternary Solvent Manager and Flow-Through-Needle Sample Manager with temperature controlled tray (8 °C) and column oven (60 °C). Chromatographic separation was achieved on an Acquity UPLC BEH amide column (2.1 mm × 100 mm, 1.7 µm) with an Acquity amide Vanguard pre-column. The system operated at a flow rate of 0.3 mL/min with solvent A (ultrapure water), solvent B (acetonitrile) and solvent C (200 mM ammonium formate with 0.04% ammonia) with the gradient shown in Table 2. The UPLC column effluent was interfaced to a Xevo TQ-XS® MS/MS system (plasma samples) and Xevo TQ-S® (urine samples), equipped with an electrospray ionization (ESI) probe operating in positive ion mode. Further MS settings included desolvation gas flow rate (15 L/h), desolvation temperature (600 °C), cone gas flow rate (800 L/h), source temperature (150 °C) and capillary voltage (0.75 kV). Transition details are depicted in Table 3. […] The detector operated in multiple reacting monitoring mode, scanning the two most intense transitions of the HCDs. Masslynx software 4.2 was used for instrument control and data extraction. Hardware and software were purchased from Waters (Milford, MA, USA).
CN1 activity was quantified by fluorometric determination of histidine following carnosine addition (based on Teufel et al., 2003). The reaction was initiated by adding carnosine to the serum (final concentration of 3.33 mM carnosine) and stopped after 10 min incubation at 37 °C by adding trichloroacetic acid (final concentration of 150 mM TCA). For controls, trichloroacetic acid was added before carnosine. After centrifugation (15 min, 16000 g), 10 µl supernatant was added to 190 µl of an OPA-NaOH mixture (4000 µl incomplete ophtaldehyde, with 0.2% 2-mercaptoethanol, and 15 ml of 4 M sodium hydroxide solution) and fluorescence was determined after 40 min (excitation: 360 nm and emission: 465 nm). All chemicals were purchased from Sigma-Aldrich (Milan, Italy).
HCD concentration in the in vitro experiment was calculated relative to the starting concentration. Elimination constant (ke) and elimination half-life were calculated based on a monophasic decay profile. Incremental area under the plasma concentration time curve (iAUC) was calculated using the trapezoidal method in the PK study. A normality check was performed using Shapiro-Wilk’s test. In case of normally distributed data, a mixed-effects model and Pearson correlation was used. Skewed data were analysed with Friedman tests and Spearman rank correlations. Values are presented as mean/median ± standard deviation/inter quartile range and 95% confidence intervals (95% CI). […]

With `Cn1cnc(CC(NC(=O)CCN)C(=O)O)c1` [balenine, β-alanyl-N(τ)-methyl-L-histidine] as the molecule, how does the “Time remaining elevated above LOQ in plasma” value (20 µM added to heparin plasma, 37 °C, LOQ 0.05 µM) read?
The value was “up to 5 h”.

What about the half-life at 20 µM (both sexes, 20 µM added to human heparin plasma, 37 °C, 6 subjects, read-out: Half-life in plasma) of the same molecule?
Its half-life at 20 µM is 34.9 ± 14.6 min.

And the half-life at 20 µM (in vitro, read-out: Half-life in plasma with the highest CN1 activity)?
The half-life at 20 µM was 15 min.

What about the “Half-life in plasma with the lowest CN1 activity relative to highest” value (in vitro) of the same molecule?
Its value is “threefold higher half-life”.

What about the “Elimination rate constant relative to carnosine” value (in vitro human heparin plasma) of the same molecule?
Its value is 3.86%.

And the “Elimination constant ke: factor lower for balenine compared to carnosine” value (in vitro human heparin plasma, factor ×)?
Its value is 25.9.

And the “Elimination constant ke: factor difference between balenine and anserine” value (in vitro human heparin plasma, factor ×, not significant)?
The value was 14.0.

Source: publication PMC10119279 (Scientific Reports, 2023)
